Reference: patent US20160375019A1, “TREATMENT OF CHRONIC GRAFT VERSUS HOST DISEASE WITH SYK INHIBITORS” (Gilead Sciences, Inc., priority 2015, published 2016)

Experiments:
[1] = Kinetic Solubility in phosphate buffer at pH 7.4; format: physicochemical; conditions: 37 °C, aqueous buffer, kinetic from dmso stock; phosphate buffer pH 7.4
Method: The kinetic solubility of compounds in phosphate buffer at pH 7.4 was assessed. The compounds to be tested were dissolved in dimethylsulfoxide at a 10 mM concentration. Stock samples were diluted, 3 μl with 297 μl of the phosphate buffer at pH 7.4 (DulBecco's phosphate buffered saline (Sigma-Aldrich D8662), overall molarity is 0.149 M and pH 7.43). The samples were then incubated for 24 hours at 37° C. with shaking, the centrifuged and an aliquot taken and tested relative to a known standard concentration of 0.1 mM.

hepatocytes = format: in vitro ADME; conditions: human
Method: The human […] stability of the compounds as predicted hepatocyte clearance in L/hr/kg was assessed. Compounds to be tested were diluted to 200 μM (4 μl of 10 mM DMSO stock into 196 μl ACN:H2O (50:50). Propranolol was used as a positive control, and buffer only without hepatocytes as 0% control. These were further diluted 4 μl with 891 μl KHB buffer (InVitroGRO catalog number Z99074) to provide 2× dosing solution. To each well of 24 well plate, 250 μl of the 2× dosing solution was added to each well with 250 μl of hepatocytes cells (1×10^6 viable cells/ml per well) or KHB for control samples to achieve a final compound concentration of 1 μM during incubation. The final solvent concentration was 0.01% DMSO and 0.25% ACN. The culture plate was placed on a rocker and incubated at 37° C., 5% CO2. Samples were collected at time 0, 1, 3, and 6 hours. The loss of parent compound was determined using LC-MS methods against a standard curve.

[2] = system: basophils (CD63 expression) in human whole blood; test: 384-well HTBS Whole Blood CD63 Basophil Assay; format: cell-based; conditions: human whole blood (25% blood); for IC50: comparison table; for EC50: Homo sapiens, anti-FceRI mAb activation
Method: Syk activity was assessed in relation to reduced activation of basophils as measured by the expression of CD63 in a human whole blood basophil cellular assay (25% blood). Basophil activation was measured in human whole blood using the Flow CAST kit (Buhlmann Laboratories AG, Baselstrasse, Switzerland) following the protocol provided by the manufacturer with minor modifications. Fresh human whole blood in heparin was collected and delivered same day (AllCells, Emeryville, Calif.). Whole blood samples were incubated with either DMSO (1% final) or serial diluted compounds in DMSO for 60 minutes at 37° C. Basophils were activated using the anti-FceRI mAb and stained with anti-CD63-FITC and anti-CCR3-PE for 20 minutes at 37° C. (per well: 50 μL of whole blood was mixed with 113 μL of stimulation buffer, 8.5 μL anti-FceRI mAb, 8.5 μL Ab stain CCR3-PE/CD63-FITC). Cells were centrifuged at 1000×g for 18 minutes and 150 μL/well of supernatant removed. Red blood cells were lysed and cells fixed by 2 rounds of cell lysing: resuspending cell pellets with 150 μL/well 1× lysis buffer, incubating at room temperature for 10 minutes, and collecting cell pellets by centrifuging for 1200 rpms for 5 minutes. Cells were washed with 150 μL/well wash buffer twice, and resuspended in a final volume of 75 μL/well of wash buffer for either immediate flow cytometery analysis or overnight incubation at 4° C. followed by flow cytometry analysis. Degranulation (basophil activation) was detected by CD63 surface expression on CCR3 positive cells. The percent CD63 positive cells within the gated basophil population were determined and normalized to the DMSO (negative control) and control compound (positive control).

[3] = system: aberrant GVHD B-cell populations; conditions: ex vivo; cited from earlier work

| Structure (SMILES) | solubility kinetic at 24 h [1] [µM] | Hheps CL (hepatocytes) [mL/min/kg] | IC50 [2] [nM] | EC50 [2] [nM] | function and frequency of aberrant GVHD B-cell populations [3] |
| --- | --- | --- | --- | --- | --- |
| Nc1cncc(-c2cn3ccnc3c(Nc3ccc(N4CCO[C@@H](CO)C4)cc3)n2)n1 [Ex.-3, (R)-(4-(4-((6-(6-aminopyrazin-2-yl)imidazo[1,2-a]pyrazin-8-yl)amino)phenyl)morpholin-2-yl)methanol] | > 90 | 1.5 | 63 |  |  |
| Cc1c(-c2cncc(N)n2)nc(Nc2ccc(N3CCN(C4COC4)CC3)cc2)c2nccn12 [Ex.-4, 6-(6-aminopyrazin-2-yl)-5-methyl-N-(4-(4-(oxetan-3-yl)piperazin-1-yl)phenyl)imidazo[1,2-a]pyrazin-8-amine] | > 90 | 1.33 | 157 | < 200 |  |
| Nc1cncc(-c2cn3ccnc3c(Nc3ccc(N4CCN(C5COC5)CC4)c(OCCO)c3)n2)n1 [Ex.-5, 2-(5-((6-(6-aminopyrazin-2-yl)imidazo[1,2-a]pyrazin-8-yl)amino)-2-(4-(oxetan-3-yl)piperazin-1-yl)phenoxy)ethanol] | > 90 | 1.17 | 120 | < 200 |  |
| Nc1cncc(-c2cn3ccnc3c(Nc3ccc(N4CCN(CC(CO)CO)CC4)cc3)n2)n1 [Ex.-6, 2-((4-(4-((6-(6-aminopyrazin-2-yl)imidazo[1,2-a]pyrazin-8-yl)amino)phenyl)piperazin-1-yl)methyl)propane-1,3-diol] | > 90 | 1.33 | 128 | < 200 |  |
| COc1cc(Nc2ncc(F)c(Nc3ccc4c(n3)N(COP(=O)(O)O)C(=O)C(C)(C)O4)n2)cc(OC)c1OC [fostamatinib] |  |  |  |  | selectively reduce the function and frequency of aberrant GVHD B-cell populations |
